From patent publication US9102977B2, “Method for analysis of cellular DNA content” (ChemoMetec A/S, priority 2010, dated 2015)

Assays:
U2OS cells [1] = experiment: Measurement of drug effects on cell cycle using acid lysis method (DNA content by DAPI image cytometry); assay type: cell-based, human; settings: drug treatment for 20 hours, Nucleocounter NC-3000 (FIG. 5)
Protocol: U2OS cells were grown in RPMI+10% FCS to approximately 75% confluency in 6-well plates (Nunclon surface, Nunc) and then treated with the following drugs for 20 hours:
After drug treatment each of the wells was washed once with 1 mL of PBS and then incubated with 0.25 ml of lysis buffer (100 mM citrate buffer (pH 2.25), 0.5% Triton X-100, 5 μg/ml DAPI) for 5 minutes at 37° C. Prior to quantitative image cytometry (Nucleocounter NC-3000), the samples were neutralized by adding 0.25 ml stabilization buffer (500 mM citrate, pH 8.3).

U2OS cells [2] = settings: known/described effect; cited from earlier work

| Structure (SMILES) | cell cycle distribution (DNA content histogram) (U2OS cells [1]) | known effect of the drug on the cell cycle (arrest phase) (U2OS cells [2]) |
| --- | --- | --- |
| CC[C@@]1(O)C(=O)OCc2c1cc1n(c2=O)Cc2cc3ccccc3nc2-1 [Camptothecin] | accumulation of S-G2 cells | 4. Camptothecin, CRT (S-G2 arrest): |
| COc1cc([C@@H]2c3cc4c(cc3[C@@H](O[C@@H]3O[C@@H]5CO[C@@H](C)O[C@H]5[C@H](O)[C@H]3O)[C@H]3COC(=O)[C@H]23)OCO4)cc(OC)c1O [Etoposide] |  | 5. Etoposide (S-G2 arrest): |
| NC(=O)NO [Hydroxyurea] |  | 3. Hydroxyurea, HU (S arrest): |
| N[C@@H](Cn1ccc(=O)c(O)c1)C(=O)O [L-mimosine] | predominantly G1 peak | 2. L-mimosine (G1 arrest): |
| COC(=O)Nc1nc2ccc(C(=O)c3cccs3)cc2[nH]1 [Nocodazole] |  | 1. Nocodazole (G2-M arrest): |
